Measured values as given in the supplement of paper PMC10627819.

Legend:
[1] = system: S. aureus Newman; test: fitness (endpoint OD595 vs no drug) (fraction); higher = more growth
How it was run: (§1)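 In 384-well plates at 37 °C, cultures began at OD595 0.01 in 30 µl, with 55 µl used for S. pneumoniae. OD595 readings every 30 min for 14 h were corrected by the first reading. Fitness divides the stationary-phase transition optical density by the robust mean of no-drug control wells. The result is capped at 1.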

[2] = system: S. aureus DSM 20231; test: as above
How it was run: as §1

[3] = system: S. pneumoniae D39V; test: as above
How it was run: as §1

[4] = system: B. subtilis 168; test: as above
How it was run: as §1

[5] = system: S. aureus Newman; test: Bliss interaction score (quartile over a dose matrix) (fitness difference); higher = more antagonism (negative = synergy)
How it was run: (§2)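 At entry into stationary phase, OD595 was recorded and divided by the robust mean of the no-drug wells on that plate, with any value above 1 set to 1. This gives the fitness measure used throughout. Single-drug fitness was inferred from combination data, and the Bliss score, observed minus product-expected fitness, is shown as quartiles across technical, biological and donor/recipient replicates.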

[6] = system: S. aureus DSM 20231; test: as above
How it was run: as §2

[7] = system: S. pneumoniae D39V; test: as above
How it was run: as §2

[8] = system: B. subtilis 168; test: as above
How it was run: as §2
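For Bliss interaction score (quartile over a dose matrix) in this document: first quartile when negative (synergy) and third quartile when positive (antagonism).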

CCC[C@@H]1C[C@@H](C(=O)N[C@@H]([C@H]2O[C@H](SC)[C@H](O)[C@@H](O)[C@H]2O)[C@H](C)Cl)N(C)C1 [Clindamycin] + Cc1cc(NS(=O)(=O)c2ccc(N)cc2)no1 [Sulfamethoxazol]
fitness
Details	partner 1 µg/mL	partner 2 µg/mL	partner 4 µg/mL
[1], first compound 0.0312 µg/mL	0.757	–	–
[1], first compound 0.125 µg/mL	0.149	–	–
[2], first compound 0.0625 µg/mL	0.0971	0.0985	0.0862
[2], first compound 0.125 µg/mL	0.0349	0.0282	0.0345
[3], first compound 0.0125 µg/mL	0.687	0.711	0.739
[3], first compound 0.025 µg/mL	0.462	0.443	0.45
[3], first compound 0.05 µg/mL	0.206	0.191	0.219
[4], first compound 0.0625 µg/mL	0.571	0.544	0.579
[4], first compound 0.125 µg/mL	0.422	0.395	0.431
[4], first compound 0.25 µg/mL	0.33	0.321	0.332

one replicate
Details	fitness
[1], first compound 0.0312 µg/mL, partner 8 µg/mL	0.896
[1], first compound 0.0625 µg/mL, partner 8 µg/mL	0.934
[1], first compound 0.125 µg/mL, partner 8 µg/mL	0.709
[3], first compound 0.015 µg/mL, partner 1 µg/mL	0.873
[3], first compound 0.015 µg/mL, partner 2 µg/mL	0.914
[3], first compound 0.015 µg/mL, partner 4 µg/mL	0.812
[3], first compound 0.03 µg/mL, partner 1 µg/mL	0.783
[3], first compound 0.03 µg/mL, partner 2 µg/mL	0.777
[3], first compound 0.03 µg/mL, partner 4 µg/mL	0.717
[3], first compound 0.06 µg/mL, partner 1 µg/mL	0.64
[3], first compound 0.06 µg/mL, partner 2 µg/mL	0.69
[3], first compound 0.06 µg/mL, partner 4 µg/mL	0.621
[4], first compound 0.0039 µg/mL, partner 1 µg/mL	≥ 1
[4], first compound 0.0039 µg/mL, partner 2 µg/mL	≥ 1
[4], first compound 0.0039 µg/mL, partner 4 µg/mL	≥ 1
[4], first compound 0.0078 µg/mL, partner 1 µg/mL	0.884
[4], first compound 0.0078 µg/mL, partner 2 µg/mL	0.853
[4], first compound 0.0078 µg/mL, partner 4 µg/mL	0.868
[4], first compound 0.0156 µg/mL, partner 1 µg/mL	0.866
[4], first compound 0.0156 µg/mL, partner 2 µg/mL	0.981
[4], first compound 0.0156 µg/mL, partner 4 µg/mL	0.907
[4], first compound 0.0625 µg/mL, partner 0.5 µg/mL	0.666
[4], first compound 0.125 µg/mL, partner 0.5 µg/mL	0.466
[4], first compound 0.25 µg/mL, partner 0.5 µg/mL	0.363

Details	Bliss interaction score
[5]	0.0865
[6]	-0.0287
[7]	-0.0442
[8]	-0.0677

CCC[C@@H]1C[C@@H](C(=O)N[C@@H]([C@H]2O[C@H](SC)[C@H](O)[C@@H](O)[C@H]2O)[C@H](C)Cl)N(C)C1 [Clindamycin] + Cc1ncc([N+](=O)[O-])n1CCO [Metronidazole]
Details	fitness
[1], first compound 0.0312 µg/mL, partner 0.625 µg/mL	0.666
[1], first compound 0.0312 µg/mL, partner 1.25 µg/mL	0.801
[1], first compound 0.0312 µg/mL, partner 2.5 µg/mL	0.821
[1], first compound 0.0625 µg/mL, partner 1.25 µg/mL	0.425
[1], first compound 0.0625 µg/mL, partner 2.5 µg/mL	0.444
[1], first compound 0.125 µg/mL, partner 0.625 µg/mL	0.0588
[1], first compound 0.125 µg/mL, partner 1.25 µg/mL	0.056
[1], first compound 0.125 µg/mL, partner 2.5 µg/mL	0.0505
[2], first compound 0.125 µg/mL, partner 0.625 µg/mL	0.0566
[2], first compound 0.125 µg/mL, partner 1.25 µg/mL	0.0685
[2], first compound 0.125 µg/mL, partner 2.5 µg/mL	0.0748
[3], first compound 0.0125 µg/mL, partner 1.25 µg/mL	0.815
[3], first compound 0.0125 µg/mL, partner 2.5 µg/mL	0.827
[3], first compound 0.0125 µg/mL, partner 5 µg/mL	0.828
[3], first compound 0.015 µg/mL, partner 1.073 µg/mL	0.956
[3], first compound 0.015 µg/mL, partner 2.145 µg/mL	0.912
[3], first compound 0.015 µg/mL, partner 4.29 µg/mL	0.841
[3], first compound 0.025 µg/mL, partner 1.25 µg/mL	0.581
[3], first compound 0.025 µg/mL, partner 2.5 µg/mL	0.553
[3], first compound 0.025 µg/mL, partner 5 µg/mL	0.518
[3], first compound 0.03 µg/mL, partner 1.073 µg/mL	0.833
[3], first compound 0.03 µg/mL, partner 2.145 µg/mL	0.839
[3], first compound 0.03 µg/mL, partner 4.29 µg/mL	0.771
[3], first compound 0.05 µg/mL, partner 1.25 µg/mL	0.269
[3], first compound 0.05 µg/mL, partner 2.5 µg/mL	0.242
[3], first compound 0.05 µg/mL, partner 5 µg/mL	0.246
[3], first compound 0.06 µg/mL, partner 1.073 µg/mL	0.61
[3], first compound 0.06 µg/mL, partner 2.145 µg/mL	0.682
[3], first compound 0.06 µg/mL, partner 4.29 µg/mL	0.642
[4], first compound 0.0625 µg/mL, partner 0.625 µg/mL	0.572
[4], first compound 0.0625 µg/mL, partner 1.25 µg/mL	0.54
[4], first compound 0.0625 µg/mL, partner 2.5 µg/mL	0.548
[4], first compound 0.125 µg/mL, partner 0.625 µg/mL	0.403
[4], first compound 0.125 µg/mL, partner 1.25 µg/mL	0.38
[4], first compound 0.125 µg/mL, partner 2.5 µg/mL	0.373
[4], first compound 0.25 µg/mL, partner 0.625 µg/mL	0.38
[4], first compound 0.25 µg/mL, partner 1.25 µg/mL	0.381
[4], first compound 0.25 µg/mL, partner 2.5 µg/mL	0.369

fitness, one replicate
Details	first compound 0.0039 µg/mL	first compound 0.0078 µg/mL	first compound 0.0156 µg/mL	first compound 0.0312 µg/mL	first compound 0.0625 µg/mL	first compound 0.125 µg/mL
[1], partner 0.781 µg/mL	–	–	–	0.71	0.533	0.0936
[1], partner 1.562 µg/mL	–	–	–	0.72	0.582	0.13
[1], partner 3.124 µg/mL	–	–	–	0.688	0.595	0.113
[4], partner 0.625 µg/mL	0.918	0.528	0.83	–	–	–
[4], partner 1.25 µg/mL	0.984	0.804	0.842	–	–	–
[4], partner 2.5 µg/mL	0.907	0.547	0.867	–	–	–

Details	Bliss interaction score
[5]	0.0887
[6]	0.0542
[7]	0.0971
[8]	0.0367

CCC[C@@H]1C[C@@H](C(=O)N[C@@H]([C@H]2O[C@H](SC)[C@H](O)[C@@H](O)[C@H]2O)[C@H](C)Cl)N(C)C1 [Clindamycin] + Cc1onc(-c2ccccc2)c1C(=O)N[C@@H]1C(=O)N2[C@@H]1SC(C)(C)[C@@H]2C(=O)O [Oxacillin]
Details	fitness
[1], first compound 0.0312 µg/mL, partner 0.0156 µg/mL	0.71
[1], first compound 0.0312 µg/mL, partner 0.0312 µg/mL	0.673
[1], first compound 0.0312 µg/mL, partner 0.0625 µg/mL	0.557
[1], first compound 0.0625 µg/mL, partner 0.0625 µg/mL	0.31
[1], first compound 0.125 µg/mL, partner 0.0156 µg/mL	0.189
[1], first compound 0.125 µg/mL, partner 0.0312 µg/mL	0.105
[1], first compound 0.125 µg/mL, partner 0.0625 µg/mL	0.0973
[2], first compound 0.0312 µg/mL, partner 0.0312 µg/mL	0.486
[2], first compound 0.0312 µg/mL, partner 0.0625 µg/mL	0.355
[2], first compound 0.0625 µg/mL, partner 0.0156 µg/mL	0.0861
[2], first compound 0.0625 µg/mL, partner 0.0312 µg/mL	0.0909
[2], first compound 0.0625 µg/mL, partner 0.0625 µg/mL	0.0694
[2], first compound 0.125 µg/mL, partner 0.0156 µg/mL	0.0621
[2], first compound 0.125 µg/mL, partner 0.0312 µg/mL	0.0625
[2], first compound 0.125 µg/mL, partner 0.0625 µg/mL	0.0779
[3], first compound 0.0125 µg/mL, partner 0.005 µg/mL	0.754
[3], first compound 0.0125 µg/mL, partner 0.01 µg/mL	0.786
[3], first compound 0.0125 µg/mL, partner 0.02 µg/mL	0.804
[3], first compound 0.015 µg/mL, partner 0.01 µg/mL	0.854
[3], first compound 0.015 µg/mL, partner 0.02 µg/mL	0.817
[3], first compound 0.015 µg/mL, partner 0.04 µg/mL	0.546
[3], first compound 0.025 µg/mL, partner 0.005 µg/mL	0.561
[3], first compound 0.025 µg/mL, partner 0.01 µg/mL	0.521
[3], first compound 0.025 µg/mL, partner 0.02 µg/mL	0.524
[3], first compound 0.03 µg/mL, partner 0.01 µg/mL	0.7
[3], first compound 0.03 µg/mL, partner 0.02 µg/mL	0.677
[3], first compound 0.03 µg/mL, partner 0.04 µg/mL	0.423
[3], first compound 0.05 µg/mL, partner 0.005 µg/mL	0.278
[3], first compound 0.05 µg/mL, partner 0.01 µg/mL	0.291
[3], first compound 0.05 µg/mL, partner 0.02 µg/mL	0.29
[4], first compound 0.0625 µg/mL, partner 0.002 µg/mL	0.546
[4], first compound 0.0625 µg/mL, partner 0.004 µg/mL	0.531
[4], first compound 0.0625 µg/mL, partner 0.008 µg/mL	0.524
[4], first compound 0.125 µg/mL, partner 0.002 µg/mL	0.396
[4], first compound 0.125 µg/mL, partner 0.004 µg/mL	0.367
[4], first compound 0.125 µg/mL, partner 0.008 µg/mL	0.367
[4], first compound 0.25 µg/mL, partner 0.002 µg/mL	0.382
[4], first compound 0.25 µg/mL, partner 0.004 µg/mL	0.372
[4], first compound 0.25 µg/mL, partner 0.008 µg/mL	0.361

fitness, [4], one replicate
Details	first compound 0.0039 µg/mL	first compound 0.0078 µg/mL	first compound 0.0156 µg/mL	first compound 0.0625 µg/mL	first compound 0.125 µg/mL	first compound 0.25 µg/mL
partner 0.0078 µg/mL	0.953	0.903	0.828	–	–	–
partner 0.0155 µg/mL	0.963	0.897	0.805	–	–	–
partner 0.031 µg/mL	0.947	0.865	0.822	–	–	–
partner 0.075 µg/mL	–	–	–	0.237	0.0774	0.0582
partner 0.15 µg/mL	–	–	–	0.063	0.066	0.0705
partner 0.3 µg/mL	–	–	–	0.0546	0.0304	0.0517

Details	Bliss interaction score
[5]	0.09
[6]	0.0814
[7]	0.105
[8]	0.0308
